Results as given in BindingDB's records for patent US11161844 (PFIZER INC., 2021).

What was measured:
[1] = target: Leucine-rich repeat serine/threonine-protein kinase 2 (Homo sapiens, UniProt Q5S007); assay: LRRK2 Assay
Description: (§1) LRRK2 kinase activity was measured using Lantha Screen technology from Invitrogen. GST-tagged truncated LRRK2 from Invitrogen (Cat #PV4874) was incubated with a fluorescein-labeled peptide substrate based upon ezrin/radixin/moesin (ERM), also known as LRRKtide (Invitrogen cat #PR8976A), in the presence of a dose response of compound. Upon completion, the assay was stopped and detected with a terbium labeled anti-phospho-ERM antibody (Invitrogen, cat #PR8975A). The assay was carried out under the following protocol: The compound dose response was prepared by diluting compound to a top concentration of 0.3 mM in 100% DMSO and serial diluted by half-log in DMSO to give an 11 point curve, 100× final assay concentration. Using Echo acoustic dispensing, 60 nL of compound was transferred to a low volume Corning 384-well assay plate. 3 μL of a working solution of substrate (200 nM LRRKtide, 2 mM ATP) prepared in assay buffer (50 mM HEPES, pH 7.5, 3 mM MgCl2, with 2 mM DTT and 0.01% Brij35 added fresh) was added to the 60 nL compound assay plate. The kinase reaction was started with 3 μL of a working solution of LRRK2 enzyme at a concentration of 4 μg/mL. The final reaction concentrations were 100 nM LRRKtide, 1 mM ATP, 2 μg/mL LRRK2 enzyme and a compound dose response with a top dose of 3 μM. The reaction was allowed to progress at room temperature for 30 minutes and then stopped with the addition of 6 μL of detection buffer (20 mM Tris pH 7.6, 0.01% NP-40, 6 mM EDTA with 2 nM terbium labeled anti-phospho-ERM). After an incubation of 1 hour at room temperature, the plate was read on an Envision with an excitation wavelength of 340 nm and a reading emission at both 520 nm and 495 nm. The ratio of the 520 nm and 495 nm emission was used to analyze the data. Inhibition of mutant G2019S LRRK2 (Invitrogen cat #PV4881) was measured in the exact same method. All final concentrations of substrate ATP and enzyme were the same.

[2] = target: Leucine-rich repeat serine/threonine-protein kinase 2 [G2019S] (Homo sapiens, UniProt Q5S007, G2019S); assay: LRRK2 Assay
Description: as §1

Chain of Leucine-rich repeat serine/threonine-protein kinase 2 (Q5S007 whole entry, the tested form may be a part): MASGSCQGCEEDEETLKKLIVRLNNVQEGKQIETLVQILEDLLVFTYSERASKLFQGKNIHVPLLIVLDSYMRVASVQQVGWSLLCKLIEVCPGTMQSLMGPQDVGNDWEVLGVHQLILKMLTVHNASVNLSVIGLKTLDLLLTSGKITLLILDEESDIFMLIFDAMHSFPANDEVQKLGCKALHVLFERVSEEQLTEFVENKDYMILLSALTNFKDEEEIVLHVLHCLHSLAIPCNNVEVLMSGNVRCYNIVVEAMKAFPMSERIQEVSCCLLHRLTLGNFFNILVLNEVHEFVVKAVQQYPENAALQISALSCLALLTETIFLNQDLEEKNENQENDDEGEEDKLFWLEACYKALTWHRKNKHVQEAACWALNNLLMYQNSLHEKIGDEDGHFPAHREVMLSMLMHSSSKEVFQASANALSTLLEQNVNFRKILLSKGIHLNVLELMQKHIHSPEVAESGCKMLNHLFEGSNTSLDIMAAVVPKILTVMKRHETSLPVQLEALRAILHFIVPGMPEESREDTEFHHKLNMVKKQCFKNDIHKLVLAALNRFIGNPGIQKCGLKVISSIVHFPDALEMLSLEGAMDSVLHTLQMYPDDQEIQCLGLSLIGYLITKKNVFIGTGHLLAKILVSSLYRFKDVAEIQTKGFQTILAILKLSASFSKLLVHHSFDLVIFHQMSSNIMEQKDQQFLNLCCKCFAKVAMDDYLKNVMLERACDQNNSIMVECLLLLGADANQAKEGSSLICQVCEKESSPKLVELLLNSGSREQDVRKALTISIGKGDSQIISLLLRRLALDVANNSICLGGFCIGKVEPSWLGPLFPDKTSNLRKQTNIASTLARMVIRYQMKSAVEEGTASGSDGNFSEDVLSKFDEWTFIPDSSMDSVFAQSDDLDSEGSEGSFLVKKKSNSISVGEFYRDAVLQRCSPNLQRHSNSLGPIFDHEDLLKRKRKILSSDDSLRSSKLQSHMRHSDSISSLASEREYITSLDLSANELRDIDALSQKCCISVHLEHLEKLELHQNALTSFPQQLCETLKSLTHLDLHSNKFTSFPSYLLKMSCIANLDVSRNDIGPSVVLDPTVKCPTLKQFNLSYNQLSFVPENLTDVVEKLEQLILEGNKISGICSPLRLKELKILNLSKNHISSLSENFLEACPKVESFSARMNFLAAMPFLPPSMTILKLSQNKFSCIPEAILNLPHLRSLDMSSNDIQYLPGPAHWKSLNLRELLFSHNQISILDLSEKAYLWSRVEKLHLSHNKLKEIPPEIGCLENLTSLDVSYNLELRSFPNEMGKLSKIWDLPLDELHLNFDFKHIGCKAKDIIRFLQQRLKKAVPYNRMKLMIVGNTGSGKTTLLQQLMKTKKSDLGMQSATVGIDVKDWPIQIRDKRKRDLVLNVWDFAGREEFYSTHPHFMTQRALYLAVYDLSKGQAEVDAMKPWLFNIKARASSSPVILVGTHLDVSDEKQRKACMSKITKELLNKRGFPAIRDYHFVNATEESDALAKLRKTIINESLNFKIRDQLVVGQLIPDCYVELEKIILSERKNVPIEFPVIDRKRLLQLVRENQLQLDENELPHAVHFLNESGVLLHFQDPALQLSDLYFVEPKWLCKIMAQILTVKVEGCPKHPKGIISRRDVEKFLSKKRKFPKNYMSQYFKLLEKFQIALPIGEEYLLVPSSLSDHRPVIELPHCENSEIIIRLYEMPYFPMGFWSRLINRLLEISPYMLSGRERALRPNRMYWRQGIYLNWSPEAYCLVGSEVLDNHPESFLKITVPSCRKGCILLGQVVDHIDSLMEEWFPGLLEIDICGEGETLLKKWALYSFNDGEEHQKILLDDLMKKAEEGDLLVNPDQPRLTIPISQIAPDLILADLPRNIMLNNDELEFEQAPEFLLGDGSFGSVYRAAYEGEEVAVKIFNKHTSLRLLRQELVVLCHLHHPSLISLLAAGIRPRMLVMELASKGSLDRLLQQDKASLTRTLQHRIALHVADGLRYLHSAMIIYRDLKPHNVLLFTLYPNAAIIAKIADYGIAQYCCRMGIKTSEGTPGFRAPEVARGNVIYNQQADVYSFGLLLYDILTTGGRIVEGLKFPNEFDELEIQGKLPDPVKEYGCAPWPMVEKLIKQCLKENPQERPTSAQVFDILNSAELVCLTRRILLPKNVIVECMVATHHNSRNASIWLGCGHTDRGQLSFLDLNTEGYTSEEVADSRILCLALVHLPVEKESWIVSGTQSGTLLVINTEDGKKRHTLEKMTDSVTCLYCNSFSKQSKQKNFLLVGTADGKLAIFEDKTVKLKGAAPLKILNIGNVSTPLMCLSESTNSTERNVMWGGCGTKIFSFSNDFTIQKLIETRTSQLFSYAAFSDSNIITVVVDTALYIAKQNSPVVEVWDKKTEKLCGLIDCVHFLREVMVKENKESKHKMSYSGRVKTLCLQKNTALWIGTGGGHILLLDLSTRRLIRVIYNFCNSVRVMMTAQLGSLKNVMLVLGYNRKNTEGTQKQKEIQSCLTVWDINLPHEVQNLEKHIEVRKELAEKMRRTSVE
Chain of Leucine-rich repeat serine/threonine-protein kinase 2 [G2019S] (Q5S007 whole entry G2019S): as the sequence (Q5S007 whole entry, the tested form may be a part) above, with G2019S counted along it

IC50 [1] [nM]	IC50 [2] [nM]	SMILES
5.68	–	C[C@@H]1C[C@H](n2c(C3CCC(F)C3)nc3cnc4ccc(F)cc4c32)CCO1 (single isomer, unassigned) [US11161844, Example 37]
22	15.8	C[C@@H]1CC(n2c(C3CC(C)(F)C3)nc3cnc4ccc(F)cc4c32)CCO1 (stereo partly drawn) [US11161844, Example 31]
